In PMC11178805, “Ligand-based design of [^18F]OXD-2314 for PET imaging in non-Alzheimer’s disease tauopathies” (Nature Communications, 2024):

Experiment: logD7.4 by shake-flask method
Type: physicochemical
Conditions: pH 7.4
Source text: [^18F]OXD-2314 was radiolabeled by an analogous method previously reported for [^18F]OXD-2115 with minor modifications (Fig. 2)[30]. [^18F]OXD-2314 was reliably produced with high radiochemical purity (RCP) ranging from 95-98%, molar activity (Am) of […] (n = 4), and radiochemical yield (RCY) of 8.7 ± 3.7% (not decay-corrected, ndc) in the laboratories in Toronto and was replicated with Am of 349 ± 144 GBq/μmol (n = 4) and RCY of 2.3 ± 1.1% (ndc) in the laboratories in Pittsburgh. The logD7.4 value of [^18F]OXD-2314 was measured as 3.11 ± 0.04 using the shake-flask method.

Structure (SMILES): CO[C@H]1CCCN(c2ccc(-c3cc4cc(O)ccc4[nH]3)c([18F])n2)C1 [[^18F]OXD-2314]
- logD: 3.11 ± 0.04
